{"source": "patent US20250049829A1", "about": "“NOVEL T[…] TARGETING THE H-RAS ISOFORM WITH G12D MUTATION INVOLVED IN CANCER FORMATION” (ISTANBUL MEDIPOL UNIVERSITESI, priority 2021, published 2025)", "biological_target": "T1, interaction of H-RASG12D with RAF (Homo sapiens, UniProt P01112, G12D)", "T1 construct": "expressed in transfected cells; host or cells: HEK-293T", "test": "Active RAS pull-down (GST-Raf-RBD) and western blot in HRASG12D-overexpressing HEK-293T cells", "type": "cell-based", "settings": "for active RAS levels: 293T-HRASG12D cells, pull-down with RAF, western blot", "method": "The candidate molecules determined as a result of molecular dynamics studies were applied to HEK-293T cells at different concentrations in order to determine the cytotoxic and optimum doses for the cells. Optimum dose ranges were determined for each molecule. HEK-293T/HRASG12D cells were treated with Cerubidine […], one of these candidate molecules, and active RAS was examined due to the interaction of RAS protein in cells with RAF. In experiments carried out on this molecule; lysate was collected at different time points from cells treated with non-toxic concentrations of Cerubidine. Active RAS precipitation (Pull Down) and subsequent Western-blot experiments performed on these lysates were used to investigate the effect of Cerubidine molecule on active RAS at different time points for 12 hours in terms of G12D mutation specificity.\nIn the said study, HEK-293T cells with high expression of RAS proteins carrying the G12D mutation were used to examine the effect of candidate ligands on the interaction of H-RASG12D with RAF. First of all, an “Active Ras Pull-Down and Detection Kit (Thermo)” was provided to detect the interaction of the active RAS protein with RAF, and therefore the active RAS proteins involved in this interaction. Since the working principle of the kit is based on the precipitation of RAS proteins interacting with RAF, immunoprecipitation experiments were performed accordingly, since the use of the kit within the scope of this experiment was suitable for the target.\nThe isolated proteins were first treated with GTPyS and GDP, and then bound to the glutathione-containing column with GST-Raf-RBD. Then, the presence of the RAS protein was examined by western blot experiment in the samples collected by elution from the column.\nThen, established 293T-HRAS^G12D cells were treated with Cerubudine, one of the candidate molecules, at different doses (non-cytotoxic), and active RAS proteins were precipitated in the presence of RAF in the lysates collected from cells, following the kit protocol validated in FIG. 5. Then, active RAS, HRAS and RAS^G12D levels were analyzed by western blot at different time points.\nHere, HRASG12D overexpressed cell lines (HEK-293T/HRAS^G12D) were treated with increasing doses of Cerubudine and lysate was obtained for protein isolation at different time points (0.5 h, 1 h, 3 h, 12 h). Active RAS precipitation was performed using isolated proteins and RAS, RASG12D and HRAS protein levels were examined by Western blot. Within the scope of the results obtained, there was a decrease in active RAS protein levels depending on the dose increase, especially in the 12th hour treated samples. Cerubidine treatment in cell lines overexpressing HRASG12D reduced the interaction of active RAS protein with RAF.", "data": [{"smiles": "COc1cccc2c1C(=O)c1c(O)c3c(c(O)c1C2=O)C[C@@](O)(C(C)=O)C[C@@H]3O[C@H]1C[C@H](N)[C@H](O)[C@H](C)O1", "note": "[Cerubidine, cerubidine]", "values": [{"measurement": "reduction in G12D mutant HRAS versus wild type HRAS levels", "setting": "5 μM and 10 μM, western blot for active RAS, HRAS and RASG12D", "result": "not wild type HRAS levels"}, {"measurement": "active RAS levels", "setting": "5 μM", "result": "significant decrease"}, {"measurement": "active RAS levels", "setting": "10 μM", "result": "significant decrease"}, {"measurement": "effect on active RAS levels, dose and time of strongest effect", "setting": "10 μM, at the end of 12 hours", "result": "most pronounced effect"}, {"measurement": "interaction of active RAS protein with RAF", "setting": "cell lines overexpressing HRASG12D", "result": "reduced"}, {"measurement": "active RAS protein levels depending on the dose increase", "setting": "increasing doses, 12th hour treated samples, HEK-293T/HRASG12D", "result": "decrease"}, {"measurement": "mutant specificity of decrease in active RAS levels (G12D specific antibody)", "setting": "membrane with G12D specific antibody", "result": "mutant specific"}]}]}
